Consider 1 compound from publication PMC6472337, “L amino acid transporter structure and molecular bases for the asymmetry of substrate interaction” (Nature Communications, 2019).

For one experiment, the system named is BasC wild-type. Description: [3H]L-alanine transport (influx, efflux, exchange) in BasC proteoliposomes. The format is biochemical, Carnobacterium sp AT7. Conditions: for V: 4 mM L-alanine inside PLs, without Nb74. How it is done:
BasC-GFP protein was reconstituted in E. coli polar lipids (Sigma-Aldrich, Madrid, Spain), as previously described. Lipids were dried under N2 and suspended in reconstitution buffer (20 mM Tris-Base, 150 mM NaCl, pH 7.4). The suspension was sonicated to clarity and purified BasC protein was added to reach the desired protein to lipid ratio of 1:100 (w:w). To destabilize the liposomes, 1.25% ß-D-octylglucoside was added and the mixture was incubated on ice with occasional agitation for 5 min. DDM and ß-D-octylglucoside were removed by dialysis for 40 h at 4 °C against 100 volumes of dialysis buffer. Proteoliposome (PL) suspensions were frozen in liquid N2 and stored at −80 °C until use.
For uptake experiments, the desired intraliposomal amino acid concentration was added to the PL suspension, which was then subjected to three freeze/thaw cycles. The extraliposomal amino acid content was then removed by ultracentrifugation (100,000 × g for 1 h at 4 °C) and PLs were resuspended to one-third of the initial volume with reconstitution buffer. Amino acid uptake assays were initiated after mixing 10 μl of cold PLs with 180 μl of transport buffer (20 mM Tris-Base, 150 mM NaCl, pH 7.4 plus 0.5–1 µCi/180 µl of radiolabeled L-amino acid (Perkin Elmer, Waltham, MA)) supplemented with the unlabeled amino acid to the desired concentration. This mixture was then incubated at room temperature for the indicated periods. […] Filters were then washed twice with 2 ml of stop buffer and dried, and the trapped radioactivity was counted. Transport measured in PLs containing no amino acid was subtracted from each data point to calculate the net exchange. […] BasC protein in PLs was determined by Coomassie blue staining in SDS-PAGE gels compared with known amounts of BasC in DDM micelles, determined by BCA assay (Pierce, Rockford, IL) and loaded in the same gel.

For a further experiment, the system named is BasC S282A mutant. Description: [3H]L-alanine transport in BasC S282A proteoliposomes. Conditions: BasC S282A in PLs, WT = 100, n=1-3 and mean. The format is biochemical, Carnobacterium sp AT7. How it is done:
BasC was overexpressed as a C-terminal fusion with GFP in E. coli BL21 Star (DE3) cells grown in LB media. Single point mutations (Supplementary Table 2) were introduced using the QuikChange site-directed mutagenesis kit (Stratagene, San Diego, CA). All mutations were verified by sequencing. Expression was induced with 0.1 mM isopropyl-ß-D-thiogalactopyranoside at 37 °C for 22 h. Cells were harvested at 5000 × g for 15 min at 4 °C and stored at −80 °C until use. Cell pellets were thawed and resuspended in 20 mM Tris-Base, 150 mM NaCl, pH 7.4. […]
For uptake experiments, the desired intraliposomal amino acid concentration was added to the PL suspension, which was then subjected to three freeze/thaw cycles. […] Filters were then washed twice with 2 ml of stop buffer and dried, and the trapped radioactivity was counted. Transport measured in PLs containing no amino acid was subtracted from each data point to calculate the net exchange. […] BasC protein in PLs was determined by Coomassie blue staining in SDS-PAGE gels compared with known amounts of BasC in DDM micelles, determined by BCA assay (Pierce, Rockford, IL) and loaded in the same gel.

In the next experiment the target is T1, hAsc-1 S325A mutant (Homo sapiens, UniProt Q9NS82, S325A).
T1 construct: expressed in transfected cells; host or cells: HeLa
T1 sequence (Q9NS82 1-523 S325A): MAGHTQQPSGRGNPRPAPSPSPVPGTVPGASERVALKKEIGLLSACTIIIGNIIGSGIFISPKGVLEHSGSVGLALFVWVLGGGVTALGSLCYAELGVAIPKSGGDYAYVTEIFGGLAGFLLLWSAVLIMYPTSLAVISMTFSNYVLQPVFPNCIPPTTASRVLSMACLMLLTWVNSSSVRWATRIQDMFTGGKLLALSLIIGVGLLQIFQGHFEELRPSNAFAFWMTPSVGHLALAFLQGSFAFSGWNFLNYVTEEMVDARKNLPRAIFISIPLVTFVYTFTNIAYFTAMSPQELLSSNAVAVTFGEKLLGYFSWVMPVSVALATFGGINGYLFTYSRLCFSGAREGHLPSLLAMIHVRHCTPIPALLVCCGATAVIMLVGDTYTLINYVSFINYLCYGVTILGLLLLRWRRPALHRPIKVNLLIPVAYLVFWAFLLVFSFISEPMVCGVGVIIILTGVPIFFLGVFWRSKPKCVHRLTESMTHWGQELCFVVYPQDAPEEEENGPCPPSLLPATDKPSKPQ
T1 sequence (P08195 1-529 partner): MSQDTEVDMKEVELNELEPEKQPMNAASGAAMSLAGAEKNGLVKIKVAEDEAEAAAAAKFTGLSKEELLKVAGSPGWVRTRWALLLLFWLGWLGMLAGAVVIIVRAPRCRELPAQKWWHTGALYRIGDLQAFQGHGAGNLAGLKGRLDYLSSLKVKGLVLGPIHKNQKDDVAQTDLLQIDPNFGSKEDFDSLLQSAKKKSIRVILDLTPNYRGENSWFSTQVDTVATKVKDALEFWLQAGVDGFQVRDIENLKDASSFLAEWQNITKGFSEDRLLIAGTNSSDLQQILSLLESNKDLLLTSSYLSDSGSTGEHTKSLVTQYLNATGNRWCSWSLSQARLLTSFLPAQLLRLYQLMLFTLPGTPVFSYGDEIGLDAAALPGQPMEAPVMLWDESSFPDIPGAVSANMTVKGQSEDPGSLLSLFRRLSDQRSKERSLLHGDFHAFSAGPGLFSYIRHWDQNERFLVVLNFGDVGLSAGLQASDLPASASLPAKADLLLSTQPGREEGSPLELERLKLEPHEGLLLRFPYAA
Description: [3H]L-alanine uptake in HeLa cells, hAsc-1 S325A. The format is cell-based. Particulars: WT = 100, n=1-3 and mean. The text has this: All mutations were verified by sequencing.

Structures are written as SMILES. Several values for one entry are separate records, joined by “and”; a condition that tells them apart may be missing. Identical values can stand only once. Like-named read-outs stand apart in the source and are kept apart here.

`C[C@H](N)C(=O)O` [L-alanine]: the “saturation of the transporter at 4 mM intraliposomal L-alanine” value in the experiment with BasC wild-type (BasC wild-type) is reported as “about 80%”. In addition, the “V/[L-Ala]” value in the experiment on BasC wild-type (Eadie-Hofstee, L-alanine 800 μM, with 5 µM Nb74, n=1-3 and mean) is listed as 0.010 pmol µg prot-1 s-1µM-1. The Michaelis-Menten constant (Km) worked out at 65 ± 12 µM in the experiment on BasC wild-type (L-alanine concentrations up to 800 µM, absence of Nb74, read-out: extracellular Km); 53.7 ± 3.97 µM with BasC wild-type (extracellular side, wild-type, read-out: Km (o)); 46 ± 9 µM in the experiment with BasC wild-type (full range kinetics inhibited by 5 µM Nb74, read-out: extracellular Km); 2220 ± 150 µM in the experiment with BasC wild-type (intracellular side, wild-type, read-out: Km (i)). Further, the V with BasC wild-type (external [3H]L-alanine 100 μM, n=1-3 and mean) is 5.346 pmol L-Ala μg BasC-1 s-1 and 5.124 pmol L-Ala μg BasC-1 s-1 and 4.879 pmol L-Ala μg BasC-1 s-1; with BasC wild-type (external [3H]L-alanine 200 μM, n=1-3 and mean), 7.346 pmol L-Ala μg BasC-1 s-1 and 6.582 pmol L-Ala μg BasC-1 s-1 and 6.938 pmol L-Ala μg BasC-1 s-1; in the experiment with BasC wild-type (external [3H]L-alanine 400 μM, n=1-3 and mean) it was 7.143 pmol L-Ala μg BasC-1 s-1 and 6.357 pmol L-Ala μg BasC-1 s-1 and 9.257 pmol L-Ala μg BasC-1 s-1. In the experiment on BasC wild-type (wild-type), the Vmax is 6.37 ± 0.70 pmols L-alanine µg protein^−1 s^−1. For the same compound, the “10 µM [3H]L-alanine/4 mM L-alanine exchange normalized to wild-type” value with BasC S282A mutant was 124.06 and 127.02 and 133.54; with BasC S282A mutant (mean), 128.21. The “transport of 10 µM [3H]L-alanine normalized to wild-type” value at hAsc-1 S325A mutant is 135.06 and 126.01 and 130.11; at hAsc-1 S325A mutant (mean), 130.39.

For orientation: Km means the substrate concentration at which the rate is half of its maximum.
